# Laboratory results taken from US10280101B2, “Water soluble chain transfer agents” (The Lubrizol Corporation, priority 2015, dated 2019).
# Assay: Solubility/stability of CTA-acid salts in water
# Format: physicochemical
# Conditions: CTA-acid dispersed in water at 1 wt. %, dissolved by adding the base/amine; solubility checked again after 48 hrs. at room temperature
# Description: These new CTA-“bases” were made using the same procedure shown above (“Formation of CTA-Acid Salt(s)”) starting with CTA-acid. The stability of several amines was tested by dispersing CTA-acid in water at 1 wt. % CTA-acid, and then dissolution by adding the amine.
row,Compound,Soluble
1,CC(C)CCCCCCCCCOCCCN,no
2,NCCOCCOCCN,no
3,O=C1CCCN1CCO,no
4,NCCOCCO,yes
5,NCCNCCO,yes
